Data on twelve molecules can be found in PMC7531004, “Discovery of gramicidin A analogues with altered activities by multidimensional screening of a one-bead-one-compound library” (Nature Communications, 2020).

The nature of series [1]: H+/Na+ transport assay of bead-derived peptides (one-point).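 Also: relative to parent gramicidin A activity set to 1.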 Type of series: biochemical. On the set-up: key: relative activity; mean of two control wells = 1.00. The conditions noted are these: bead-derived peptide solution, EYPC/EYPG LUVs. The essentials: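 Pyranine (1.0 mM)-loaded LUVs containing egg yolk phosphatidylglycerol were prepared by film hydration, sonication and extrusion, then mixed with diluted bead-derived peptide in 96-well format and vortexed 30 min at room temperature. Fluorescence was normalized between untreated LUVs (0%) and Triton X-100 lysis (100%).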

Series [2] concerns P388 mouse leukemia cells. The conditions noted are these: 92 h. The essentials:
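Peptide stocks diluted 250× in growth medium; P388 cells 1 × 10^4 cells/mL final; 37 °C, 5% CO2, 92 h. WST-1 + 1-methoxy PMS, 4 h, A415. Output: % viability.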

Series [3] has as its system Streptococcus pyogenes SSI-9. As to the kind of experiment: Antibacterial activity assay of bead-derived peptides (three concentrations). Type of series: cell-based. On the set-up: key: +++: inhibition by the 640-fold diluted peptide solution; ++: inhibition by the 160-fold diluted solution; +: inhibition by the 40-fold diluted solution; -: no inhibition. The conditions noted are these: S. pyogenes, bead-derived peptide solution, three concentrations. Put shortly: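 Growth inhibition scored visually as precipitated bacteria after 37 °C, 18 h incubation. Streptococcus pyogenes SSI-9 inoculum of 2 × 10^5 CFU in Ca2+/Mg2+-adjusted Mueller Hinton broth plus 5% laked horse blood; peptides tested at three levels: stock, 4-fold and 16-fold DMSO dilutions.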

The structures appear in SMILES notation. Where a SMILES comes first, the peptide text is derived from it. [ ]: non-standard residue; d: D form. The star is where a group is joined. NHCH2CH2OH = OCCN*; For = O=C*

Turning to `CC(C)C[C@@H](NC(=O)[C@H](C)NC(=O)CNC(=O)[C@@H](NC=O)C(C)C)C(=O)N[C@@H](C)C(=O)N[C@@H](C(=O)N[C@H](C(=O)N[C@@H](C(=O)N[C@@H](Cc1c[nH]c2ccccc12)C(=O)N[C@H](CC(C)C)C(=O)N[C@@H](Cc1c[nH]c2ccccc12)C(=O)N[C@H](CC(C)C)C(=O)N[C@@H](Cc1c[nH]c2ccccc12)C(=O)N[C@H](CC(C)C)C(=O)N[C@@H](Cc1c[nH]c2ccccc12)C(=O)NCCO)C(C)C)C(C)C)C(C)C` [compound 6292] (For-VGA[dL]A[dV]V[dV]W[dL]W[dL]W[dL]W-NHCH2CH2OH), in series [1], the “H+/Na+ transport activity normalized against the value of 1 (1.00)” value (“H+/Na+ transport activity normalized” for short) was determined as 1.25. This molecule also displayed a cell viability/% in series [2] of 5.4%. The antibacterial activity entry in series [3] is given as “++”.
The matching figures for `CNC(=O)C[C@@H](NC(=O)[C@H](Cc1c[nH]c2ccccc12)NC(=O)[C@@H](CC(C)C)NC(=O)[C@H](Cc1c[nH]c2ccccc12)NC(=O)[C@H](NC(=O)[C@H](Cc1c[nH]c2ccccc12)NC(=O)[C@H](NC(=O)[C@@H](NC(=O)[C@@H](CC(C)C)NC(=O)[C@H](C)NC(=O)[C@H](NC(=O)[C@H](C)NC(=O)CNC(=O)[C@@H](NC=O)C(C)C)C(C)C)C(C)C)C(C)C)C(C)C)C(=O)N[C@@H](Cc1c[nH]c2ccccc12)C(=O)NCCO` [compound 6329] (For-VGA[dV]A[dL]V[dV]W[dV]W[dL]W[dD](NHMe)W-NHCH2CH2OH): 1.03, 43.5% and “-”.
The matching figures for `CNC(=O)C[C@@H](NC(=O)[C@@H](NC(=O)[C@@H](CC(C)C)NC(=O)[C@H](C)NC(=O)[C@H](NC(=O)[C@H](C)NC(=O)CNC(=O)[C@@H](NC=O)C(C)C)C(C)C)C(C)C)C(=O)N[C@@H](Cc1c[nH]c2ccccc12)C(=O)N[C@H](CC(C)C)C(=O)N[C@@H](Cc1c[nH]c2ccccc12)C(=O)N[C@H](CC(C)C)C(=O)N[C@@H](Cc1c[nH]c2ccccc12)C(=O)N[C@@H](C(=O)N[C@@H](Cc1c[nH]c2ccccc12)C(=O)NCCO)C(C)C` [compound 6360] (For-VGA[dV]A[dL]V[dD](NHMe)W[dL]W[dL]W[dV]W-NHCH2CH2OH): 1.03, 67.2% and “-”.
For `CNC(=O)C[C@@H](NC(=O)[C@@H](NC(=O)[C@H](NC(=O)[C@H](C)NC(=O)[C@H](NC(=O)[C@H](C)NC(=O)CNC(=O)[C@@H](NC=O)C(C)C)C(C)C)C(C)C)C(C)C)C(=O)N[C@@H](Cc1c[nH]c2ccccc12)C(=O)N[C@H](CC(C)C)C(=O)N[C@@H](Cc1c[nH]c2ccccc12)C(=O)N[C@H](CC(C)C)C(=O)N[C@@H](Cc1c[nH]c2ccccc12)C(=O)N[C@@H](C(=O)N[C@@H](Cc1c[nH]c2ccccc12)C(=O)NCCO)C(C)C` [compound 6510] (For-VGA[dV]A[dV]V[dD](NHMe)W[dL]W[dL]W[dV]W-NHCH2CH2OH), the “H+/Na+ transport activity normalized” value in series [1] is 1.36. This molecule had a cell viability/% in series [2] of 100.0%. The antibacterial activity result in series [3] is listed as “-”.
The matching figures for `CNC(=O)C[C@@H](NC(=O)[C@H](Cc1c[nH]c2ccccc12)NC(=O)[C@H](NC(=O)[C@H](Cc1c[nH]c2ccccc12)NC(=O)[C@H](NC(=O)[C@H](Cc1c[nH]c2ccccc12)NC(=O)[C@@H](CC(C)C)NC(=O)[C@@H](NC(=O)[C@H](NC(=O)[C@H](C)NC(=O)[C@@H](CC(C)C)NC(=O)[C@H](C)NC(=O)CNC(=O)[C@@H](NC=O)C(C)C)C(C)C)C(C)C)C(C)C)C(C)C)C(=O)N[C@@H](Cc1c[nH]c2ccccc12)C(=O)NCCO` [compound 6520] (For-VGA[dL]A[dV]V[dL]W[dV]W[dV]W[dD](NHMe)W-NHCH2CH2OH): 1.08, 100.0% and “-”.
For `CC(C)C[C@@H](NC(=O)[C@H](C)NC(=O)[C@H](NC(=O)[C@H](C)NC(=O)CNC(=O)[C@@H](NC=O)C(C)C)C(C)C)C(=O)N[C@H](C(=O)N[C@H](CC(C)C)C(=O)N[C@@H](Cc1c[nH]c2ccccc12)C(=O)N[C@@H](C(=O)N[C@@H](Cc1c[nH]c2ccccc12)C(=O)N[C@@H](C(=O)N[C@@H](Cc1c[nH]c2ccccc12)C(=O)N[C@H](CC(C)C)C(=O)N[C@@H](Cc1c[nH]c2ccccc12)C(=O)NCCO)C(C)C)[C@H](C)O)C(C)C` [compound 6572] (For-VGA[dV]A[dL]V[dL]W[dT]W[dV]W[dL]W-NHCH2CH2OH) the same measures were 1.09, 100.0% and “-”.
`CC(C)C[C@@H](NC(=O)[C@H](C)NC(=O)CNC(=O)[C@@H](NC=O)C(C)C)C(=O)N[C@@H](C)C(=O)N[C@H](CC(C)C)C(=O)N[C@H](C(=O)N[C@H](CC(C)C)C(=O)N[C@@H](Cc1c[nH]c2ccccc12)C(=O)N[C@H](CC(C)C)C(=O)N[C@@H](Cc1c[nH]c2ccccc12)C(=O)N[C@H](CC(C)C)C(=O)N[C@@H](Cc1c[nH]c2ccccc12)C(=O)N[C@@H](C(=O)N[C@@H](Cc1c[nH]c2ccccc12)C(=O)NCCO)C(C)C)C(C)C` [compound 6639] (For-VGA[dL]A[dL]V[dL]W[dL]W[dL]W[dV]W-NHCH2CH2OH): the “H+/Na+ transport activity normalized” value in series [1] is recorded as 1.01. In series [2], the cell viability/% was found to be 0.0%. For the same molecule, the antibacterial activity entry in series [3] is given as “+”.
For `CC(C)C[C@@H](NC(=O)[C@H](C)NC(=O)CNC(=O)[C@@H](NC=O)C(C)C)C(=O)N[C@@H](C)C(=O)N[C@@H](C(=O)N[C@H](C(=O)N[C@@H](C(=O)N[C@@H](Cc1c[nH]c2ccccc12)C(=O)N[C@H](CC(C)C)C(=O)N[C@@H](Cc1c[nH]c2ccccc12)C(=O)N[C@H](CC(C)C)C(=O)N[C@@H](Cc1c[nH]c2ccccc12)C(=O)N[C@@H](C(=O)N[C@@H](Cc1c[nH]c2ccccc12)C(=O)NCCO)C(C)C)[C@H](C)O)C(C)C)C(C)C` [compound 6702] (For-VGA[dL]A[dV]V[dT]W[dL]W[dL]W[dV]W-NHCH2CH2OH) the same measures were 1.03, 100.0% and “+”.
Take `CNC(=O)C[C@@H](NC(=O)[C@@H](NC(=O)[C@@H](CC(C)C)NC(=O)[C@H](C)NC(=O)[C@@H](CC(C)C)NC(=O)[C@H](C)NC(=O)CNC(=O)[C@@H](NC=O)C(C)C)C(C)C)C(=O)N[C@@H](Cc1c[nH]c2ccccc12)C(=O)N[C@@H](C(=O)N[C@@H](Cc1c[nH]c2ccccc12)C(=O)N[C@H](CC(C)C)C(=O)N[C@@H](Cc1c[nH]c2ccccc12)C(=O)N[C@H](CC(C)C)C(=O)N[C@@H](Cc1c[nH]c2ccccc12)C(=O)NCCO)C(C)C` [compound 6703] (For-VGA[dL]A[dL]V[dD](NHMe)W[dV]W[dL]W[dL]W-NHCH2CH2OH): the “H+/Na+ transport activity normalized” value in series [1] is reported as 1.17. For the same molecule, in series [2], the cell viability/% was found to be 100.0%. In addition, the antibacterial activity entry in series [3] is recorded as “-”.
For `CC(C)C[C@@H](NC(=O)[C@H](C)NC(=O)CNC(=O)[C@@H](NC=O)C(C)C)C(=O)N[C@@H](C)C(=O)N[C@@H](C(=O)N[C@H](C(=O)N[C@@H](C(=O)N[C@@H](Cc1c[nH]c2ccccc12)C(=O)N[C@H](CC(C)C)C(=O)N[C@@H](Cc1c[nH]c2ccccc12)C(=O)N[C@H](CC(C)C)C(=O)N[C@@H](Cc1c[nH]c2ccccc12)C(=O)N[C@H](CC(C)C)C(=O)N[C@@H](Cc1c[nH]c2ccccc12)C(=O)NCCO)[C@H](C)O)C(C)C)C(C)C` [compound 6766] (For-VGA[dL]A[dV]V[dT]W[dL]W[dL]W[dL]W-NHCH2CH2OH) the same measures were 1.07, 100.0% and “+”.
Take `CC(C)C[C@@H](NC(=O)[C@@H](NC(=O)[C@H](NC(=O)[C@H](C)NC(=O)[C@H](NC(=O)[C@H](C)NC(=O)CNC(=O)[C@@H](NC=O)C(C)C)C(C)C)C(C)C)C(C)C)C(=O)N[C@@H](Cc1c[nH]c2ccccc12)C(=O)N[C@@H](C(=O)N[C@@H](Cc1c[nH]c2ccccc12)C(=O)N[C@@H](C(=O)N[C@@H](Cc1c[nH]c2ccccc12)C(=O)N[C@@H](C(=O)N[C@@H](Cc1c[nH]c2ccccc12)C(=O)NCCO)[C@H](C)O)C(C)C)C(C)C` [compound 6781] (For-VGA[dV]A[dV]V[dL]W[dV]W[dV]W[dT]W-NHCH2CH2OH): the “H+/Na+ transport activity normalized” value in series [1] worked out at 1.04. In series [2], the cell viability/% is listed as 100.0%. The antibacterial activity entry in series [3] is on record as “+”.
Take `CC(C)C[C@@H](NC(=O)[C@H](C)NC(=O)[C@H](NC(=O)[C@H](C)NC(=O)CNC(=O)[C@@H](NC=O)C(C)C)[C@H](C)O)C(=O)N[C@H](C(=O)N[C@H](CC(C)C)C(=O)N[C@@H](Cc1c[nH]c2ccccc12)C(=O)N[C@@H](C(=O)N[C@@H](Cc1c[nH]c2ccccc12)C(=O)N[C@H](CC(C)C)C(=O)N[C@@H](Cc1c[nH]c2ccccc12)C(=O)N[C@@H](C(=O)N[C@@H](Cc1c[nH]c2ccccc12)C(=O)NCCO)C(C)C)C(C)C)C(C)C` [compound 6797] (For-VGA[dT]A[dL]V[dL]W[dV]W[dL]W[dV]W-NHCH2CH2OH): in series [1], the “H+/Na+ transport activity normalized” value stood at 1.02. The molecule also gave a cell viability/% in series [2] of 100.0%. Besides, in series [3], the antibacterial activity entry was “-”.
